Structures are written as SMILES.

What all share (format): functional
Common to all, as to conditions: read-out: IZ

Test [1] relates to Fusarium verticillioides. The experiment in a line: Antifungal activity against Fusarium verticillioides Nirenberg (Sacc.) by agar diffusion method at 300 ug.
In test [2] the test system is Fusarium verticillioides. The experiment in a line: Antifungal activity against Fusarium verticillioides Nirenberg (Sacc.) by agar diffusion method at 50 ug.
Test [3] has as its system Fusarium verticillioides. The test is described as follows: Antifungal activity against Fusarium verticillioides Nirenberg (Sacc.) by agar diffusion method at 100 ug.

As to `CCCCCCCCCCC(O)=C1C(=O)C=CC1=O` [CHRYSOTRIONE B], in the test with Fusarium verticillioides [1], the zone of inhibition at 300 µg/disc was determined as 18 mm. The zone of inhibition at 50 µg/disc with Fusarium verticillioides [2] came out at 3 mm. For the same compound, the zone of inhibition at 100 µg/disc in the test with Fusarium verticillioides [3] was determined as 15 mm.

Take `Cc1cc(C2CCCCC2)n(O)c(=O)c1` [CICLOPIROX]: in the test with Fusarium verticillioides [2], the zone of inhibition at 50 µg/disc is 25 mm.

With `C=CCCCCCCCCC(O)=C1C(=O)C=CC1=O` [CHRYSOTRIONE A], the zone of inhibition at 300 µg/disc in the test on Fusarium verticillioides [1] was 35 mm. The zone of inhibition at 50 µg/disc in the test with Fusarium verticillioides [2] is 3 mm. Further, the zone of inhibition at 100 µg/disc in the test with Fusarium verticillioides [3] worked out at 10 mm.

For the origin of these results see ChEMBL document CHEMBL1139849, “Antifungal acylcyclopentenediones from fruiting bodies of Hygrophorus chrysodon” (2007).
